US9695171B2, “3,4-disubstituted-1 H-pyrrolo[2,3-b]pyridines and 4,5-disubstituted-7H-pyrrolo[2,3-c]pyridazines as LRRK2 inhibitors” (Pfizer Inc., priority 2013, dated 2017)

These molecules were tested against T1, GST-tagged truncated LRRK2 (Homo sapiens, UniProt Q5S007) (assay: LRRK2 kinase assay (Lantha Screen)). Settings: 1 mM ATP (head); a = geometric mean of >=4 determinations, b = single determination; read-out: LRRK2 LANTHA EC50 at 1 mM ATP; Geometric mean of 2-3 determinations unless otherwise indicated.
T1 construct: GST-tagged truncated LRRK2 from Invitrogen (Cat # PV4874); GST; purchased Invitrogen PV4874
Assay type: biochemical
Procedure: LRRK2 kinase activity was measured using Lantha Screen technology from Invitrogen. GST-tagged truncated LRRK2 from Invitrogen (Cat # PV4874) was incubated with a fluorescein-labeled peptide substrate based upon ezrin/radixin/moesin (ERM), also known as LRRKtide (Invitrogen cat # PR8976A), in the presence of a dose response of compound. Upon completion, the assay was stopped and detected with a terbium labeled anti-phospho-ERM antibody (Invitrogen, cat # PR8975A). […] The compound dose response was prepared by diluting compound to a top concentration of 3.16 mM in 100% DMSO and serial diluted by half-log in DMSO 11 times. Aliquots (3.5 μL) of the 100% DMSO dose response were mixed with 46.5 μL water then 1 μL of this mixture was added to the 3 μL substrate mix in the 384-well plate. The kinase reaction was started with 3 μL of a working solution of LRRK2 enzyme at a concentration of 4 μg/mL. […] The reaction was allowed to progress at room temperature for two hours and then stopped with the addition of 7 μL of detection buffer (20 mM Tris pH 7.6, 0.01% NP-40, 0.02% NaN3, 6 mM EDTA with 2 nM terbium labeled anti-phospho-ERM). After an incubation of 1 hour at room temperature, the plate was read on an Envision with an excitation wavelength of 340 nm and a reading emission at both 520 nm and 495 nm. The ratio of the 520 nm and 495 nm emission was used to analyze the data.

T1 sequence (Q5S007 970-2527 limits assumed): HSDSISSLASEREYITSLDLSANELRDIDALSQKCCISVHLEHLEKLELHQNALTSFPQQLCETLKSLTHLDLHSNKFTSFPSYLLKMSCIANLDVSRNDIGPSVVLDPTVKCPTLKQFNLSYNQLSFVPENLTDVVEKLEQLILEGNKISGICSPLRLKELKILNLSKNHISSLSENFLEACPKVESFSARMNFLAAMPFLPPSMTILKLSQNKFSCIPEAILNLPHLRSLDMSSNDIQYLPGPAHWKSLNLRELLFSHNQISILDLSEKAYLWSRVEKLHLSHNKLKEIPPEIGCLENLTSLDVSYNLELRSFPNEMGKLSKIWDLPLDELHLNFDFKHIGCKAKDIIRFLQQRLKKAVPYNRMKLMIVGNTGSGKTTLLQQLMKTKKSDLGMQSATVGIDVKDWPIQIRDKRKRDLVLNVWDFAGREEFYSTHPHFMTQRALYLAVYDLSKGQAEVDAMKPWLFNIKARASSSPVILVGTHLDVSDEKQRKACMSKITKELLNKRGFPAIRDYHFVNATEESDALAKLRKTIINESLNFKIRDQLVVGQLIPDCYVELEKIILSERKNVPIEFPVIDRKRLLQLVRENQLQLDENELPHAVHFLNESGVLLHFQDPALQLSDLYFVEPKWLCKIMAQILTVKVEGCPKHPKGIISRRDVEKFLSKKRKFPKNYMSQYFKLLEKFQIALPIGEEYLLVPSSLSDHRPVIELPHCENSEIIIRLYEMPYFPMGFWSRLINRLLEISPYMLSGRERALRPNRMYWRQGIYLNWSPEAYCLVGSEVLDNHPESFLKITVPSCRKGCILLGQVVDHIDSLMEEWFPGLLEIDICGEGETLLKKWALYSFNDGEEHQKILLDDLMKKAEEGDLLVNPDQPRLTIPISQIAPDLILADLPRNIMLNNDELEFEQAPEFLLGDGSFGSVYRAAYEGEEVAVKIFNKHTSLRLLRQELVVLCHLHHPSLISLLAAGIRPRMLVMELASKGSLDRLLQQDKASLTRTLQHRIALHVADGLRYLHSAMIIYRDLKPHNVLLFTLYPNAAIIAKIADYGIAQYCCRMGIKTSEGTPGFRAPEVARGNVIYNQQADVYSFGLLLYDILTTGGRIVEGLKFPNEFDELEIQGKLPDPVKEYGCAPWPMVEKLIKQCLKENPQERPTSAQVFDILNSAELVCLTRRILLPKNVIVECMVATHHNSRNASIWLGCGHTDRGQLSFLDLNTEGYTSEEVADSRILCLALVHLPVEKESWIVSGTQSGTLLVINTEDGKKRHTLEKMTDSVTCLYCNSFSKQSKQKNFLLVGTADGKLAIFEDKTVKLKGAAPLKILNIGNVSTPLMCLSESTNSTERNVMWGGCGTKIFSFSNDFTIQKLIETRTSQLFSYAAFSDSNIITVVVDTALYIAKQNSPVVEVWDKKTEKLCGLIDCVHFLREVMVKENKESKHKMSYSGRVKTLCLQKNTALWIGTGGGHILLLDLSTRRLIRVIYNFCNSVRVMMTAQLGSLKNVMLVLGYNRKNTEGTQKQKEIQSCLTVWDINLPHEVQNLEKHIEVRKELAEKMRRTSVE

Row | Structure (SMILES) | EC50
1 | N#Cc1cccc(-c2c[nH]c3ncc(C#N)c(N4CCOCC4)c23)c1F [Example 45, 3-(3-cyano-2-fluorophenyl)-4-(morpholin-4-yl)-1H-pyrrolo[2,3-b]pyridine-5-carbonitrile] | 20.4 nM
2 | COc1cc(F)cc(-c2c[nH]c3nccc(N4CCOCC4)c23)c1 [Example 16, 3-(3-fluoro-5-methoxyphenyl)-4-(morpholin-4-yl)-1H-pyrrolo[2,3-b]pyridine] | 44.3 nM
3 | Cn1cc(-c2c[nH]c3nccc(N4CCOCC4)c23)cn1 [Example 13, 3-(1-methyl-1H-pyrazol-4-yl)-4-(morpholin-4-yl)-1H-pyrrolo[2,3-b]pyridine] | 26.5 nM
4 | Fc1cccc(-c2c[nH]c3nccc(N4CCOCC4)c23)c1 [Example 25, 3-(3-fluorophenyl)-4-(morpholin-4-yl)-1H-pyrrolo[2,3-b]pyridine] | 34.5 nM
5 | N#Cc1cccc(-c2c[nH]c3nccc(N4CCCOCC4)c23)c1 [Example 69, 3-[4-(1,4-oxazepan-4-yl)-1H-pyrrolo[2,3-b]pyridin-3-yl]benzonitrile] | 150 nM
6 | Fc1cc(Cl)cc(-c2c[nH]c3nccc(N4CCOCC4)c23)c1 [Example 21, 3-(3-chloro-5-fluorophenyl)-4-(morpholin-4-yl)-1H-pyrrolo[2,3-b]pyridine] | 51.5 nM
7 | CN(C)c1ccnc2[nH]cc(-c3cnn(C)c3)c12 [Example 62, N,N-dimethyl-3-(1-methyl-1H-pyrazol-4-yl)-1H-pyrrolo[2,3-b]pyridin-4-amine] | 185 nM
8 | N#Cc1cccc(-c2c[nH]c3nccc(N4CCCC4)c23)c1 [Example 77, 3-[4-(pyrrolidin-1-yl)-1H-pyrrolo[2,3-b]pyridin-3-yl]benzonitrile] | 14.1 nM
9 | N#Cc1cc(-c2c[nH]c3nccc(N4CCOCC4)c23)c[nH]1 [Example 86, 4-[4-(morpholin-4-yl)-1H-pyrrolo[2,3-b]pyridin-3-yl]-1H-pyrrole-2-carbonitrile] | 2.75 nM
10 | Cn1cc(-c2c[nH]c3nccc(N4CCOCC4)c23)cc1C#N [Example 4, 1-Methyl-4-[4-(morpholin-4-yl)-1H-pyrrolo[2,3-b]pyridin-3-yl]-1H-pyrrole-2-carbonitrile] | 2.85 nM
11 | COc1ccc(F)cc1-c1c[nH]c2nccc(N3CCOCC3)c12 [Example 15, 3-(5-fluoro-2-methoxyphenyl)-4-(morpholin-4-yl)-1H-pyrrolo[2,3-b]pyridine] | 92.3 nM
12 | C[C@H]1CN(c2ccnc3[nH]cc(-c4cnn(C)c4)c23)CCO1 [Example 58, 4-[(2S)-2-methylmorpholin-4-yl]-3-(1-methyl-1H-pyrazol-4-yl)-1H-pyrrolo[2,3-b]pyridine] | 169 nM
13 | Fc1ccc(Cl)cc1-c1c[nH]c2nccc(N3CCOCC3)c12 [Example 27, 3-(5-chloro-2-fluorophenyl)-4-(morpholin-4-yl)-1H-pyrrolo[2,3-b]pyridine] | 57.6 nM
14 | N#Cc1cccc(-c2c[nH]c3nncc(N4CCOCC4)c23)c1F [Example 92, 2-fluoro-3-[4-(morpholin-4-yl)-7H-pyrrolo[2,3-c]pyridazin-5-yl]benzonitrile] | 43.7 nM
15 | N#Cc1cccc(-c2c[nH]c3nncc(N4CCOCC4)c23)c1 [Example 90, 3-[4-(morpholin-4-yl)-7H-pyrrolo[2,3-c]pyridazin-5-yl]benzonitrile] | 42.2 nM
16 | N#Cc1cccc(-c2c[nH]c3nccc(N4CCOCC4)c23)n1 [Example 19, 6-[4-(morpholin-4-yl)-1H-pyrrolo[2,3-b]pyridin-3-yl]pyridine-2-carbonitrile] | 47.5 nM
17 | Cn1cc(-c2c[nH]c3nccc(-c4cc(F)cc(F)c4)c23)cn1 [Example 103, 4-(3,5-difluorophenyl)-3-(1-methyl-1H-pyrazol-4-yl)-1H-pyrrolo[2,3-b]pyridine] | 125 nM

Row | Structure (SMILES) | EC50
18 | Cc1[nH]c2nccc(N3CCOCC3)c2c1-c1cnn(C)c1 [Example 17, 2-methyl-3-(1-methyl-1H-pyrazol-4-yl)-4-(morpholin-4-yl)-1H-pyrrolo[2,3-b]pyridine] | 137 nM
19 | c1cc(N2CCOCC2)c2c(-c3cn[nH]c3)c[nH]c2n1 [Example 68, 4-(morpholin-4-yl)-3-(1H-pyrazol-4-yl)-1H-pyrrolo[2,3-b]pyridine] | 30.5 nM
20 | c1ccc(-c2c[nH]c3nccc(N4CCOCC4)c23)cc1 [Example 36, 4-(morpholin-4-yl)-3-phenyl-1H-pyrrolo[2,3-b]pyridine] | 49.7 nM
21 | Cn1cc(-c2c[nH]c3nccc(N4C[C@H]5CC[C@@H](C4)O5)c23)cn1 [Example 61, 3-(1-methyl-1H-pyrazol-4-yl)-4-(8-oxa-3-azabicyclo[3.2.1]oct-3-yl)-1H-pyrrolo[2,3-b]pyridine] | 221 nM
22 | Cn1cc(-c2c[nH]c3nccc(N4CCSCC4)c23)cn1 [Example 63, 3-(1-methyl-1H-pyrazol-4-yl)-4-(thiomorpholin-4-yl)-1H-pyrrolo[2,3-b]pyridine] | 71.9 nM
23 | Cn1cc(-c2c[nH]c3nccc(-c4ccccc4)c23)cn1 [Example 89, 3-(1-methyl-1H-pyrazol-4-yl)-4-phenyl-1H-pyrrolo[2,3-b]pyridine] | 13.7 nM
24 | COC(=O)c1cnc2[nH]cc(-c3cccc(C#N)c3)c2c1N1CCOCC1 [Example 82, methyl 3-(3-cyanophenyl)-4-(morpholin-4-yl)-1H-pyrrolo[2,3-b]pyridine-5-carboxylate] | 12.3 nM
25 | Fc1ccc(-c2c[nH]c3nccc(N4CCOCC4)c23)c(F)c1 [Example 37, 3-(2,4-difluorophenyl)-4-(morpholin-4-yl)-1H-pyrrolo[2,3-b]pyridine] | 147 nM
26 | Cn1cc(-c2c[nH]c3nccc(-c4cc(F)ccc4F)c23)cn1 [Example 95, 4-(2,5-difluorophenyl)-3-(1-methyl-1H-pyrazol-4-yl)-1H-pyrrolo[2,3-b]pyridine] | 49.5 nM
27 | Cn1cc(-c2c[nH]c3nccc(-c4cccc(CC#N)c4)c23)cn1 [Example 108, {3-[3-(1-methyl-1H-pyrazol-4-yl)-1H-pyrrolo[2,3-b]pyridin-4-yl]phenyl}acetonitrile] | 185 nM
28 | N#Cc1cccc(-c2c[nH]c3nccc(N4CCC(O)CC4)c23)c1 [Example 70, 3-[4-(4-hydroxypiperidin-1-yl)-1H-pyrrolo[2,3-b]pyridin-3-yl]benzonitrile] | 85.3 nM
29 | N#Cc1cccc(-c2c[nH]c3nccc(N4CCCC(O)C4)c23)c1 (stereo not drawn) [Example 66, 3-[4-(3-hydroxypiperidin-1-yl)-1H-pyrrolo[2,3-b]pyridin-3-yl]benzonitrile] | 24.3 nM
30 | Cn1cc(-c2c[nH]c3nccc(N4CCCC(F)(F)C4)c23)cn1 [Example 59, 4-(3,3-difluoropiperidin-1-yl)-3-(1-methyl-1H-pyrazol-4-yl)-1H-pyrrolo[2,3-b]pyridine] | 197 nM
31 | Fc1cccc(-c2c[nH]c3nccc(N4CCOCC4)c23)c1F [Example 24, 3-(2,3-difluorophenyl)-4-(morpholin-4-yl)-1H-pyrrolo[2,3-b]pyridine] | 16.8 nM
32 | N#CCc1cnc2[nH]cc(-c3cccc(C#N)c3)c2c1N1CCOCC1 [Example 83, 3-[5-(cyanomethyl)-4-(morpholin-4-yl)-1H-pyrrolo[2,3-b]pyridin-3-yl]benzonitrile] | 106 nM
33 | Fc1c(Cl)cccc1-c1c[nH]c2nccc(N3CCOCC3)c12 [Example 32, 3-(3-chloro-2-fluorophenyl)-4-(morpholin-4-yl)-1H-pyrrolo[2,3-b]pyridine] | 40.7 nM
